The record followed here is patent US20230374071A1, “COMPOSITIONS FOR INDUCING URINARY VOIDING AND DEFECATION” (Dignify Therapeutics, LLC, priority 2020, published 2023).

Converted amounts (≈) assume the structure as drawn. “Also recorded” adds a separate entry of the source. Non-standard residues stand in square brackets, D forms with d. Residues, ends and D or L forms follow the SMILES beside them. Nle = CCCC[C@H](N)C(=O)O; βAla = NCCC(=O)O

Data set [1] can be described thus: Aqueous solubility of lyophilized peptide analogs (observed dissolution in Dulbecco's phosphate buffered saline and water). The class given is physicochemical. The settings on record: observed dissolution in both Dulbecco's phosphate buffered saline and water; 5 mg/mL was the maximum tested. The protocol:
Peptide analogs of NKA were purified to ≥95% purity. […] Compounds A, B, H, and J (SEQ ID NO: 1, 2, 8, and 10) were considered to be aqueous insoluble (<0.1 mg/mL). *Aqueous solubilities of the lyophilized peptide analogs were determined based on the observed dissolution in both Dulbecco's phosphate buffered saline and water. gc=Gly-(R-gamma-lactam)-Leu or (S)-2-((R)-3-amino)-2-oxopyrrolidin-1-yl)-4-methylpantanoyl.

Data set [2] concerns the target T1, human NK2 receptor (hNK2R) (Homo sapiens, UniProt P21452).
T1 construct: expressed in transfected cells; host or cells: CHO (CHO-hNK2)
T1 sequence (P21452 1-398): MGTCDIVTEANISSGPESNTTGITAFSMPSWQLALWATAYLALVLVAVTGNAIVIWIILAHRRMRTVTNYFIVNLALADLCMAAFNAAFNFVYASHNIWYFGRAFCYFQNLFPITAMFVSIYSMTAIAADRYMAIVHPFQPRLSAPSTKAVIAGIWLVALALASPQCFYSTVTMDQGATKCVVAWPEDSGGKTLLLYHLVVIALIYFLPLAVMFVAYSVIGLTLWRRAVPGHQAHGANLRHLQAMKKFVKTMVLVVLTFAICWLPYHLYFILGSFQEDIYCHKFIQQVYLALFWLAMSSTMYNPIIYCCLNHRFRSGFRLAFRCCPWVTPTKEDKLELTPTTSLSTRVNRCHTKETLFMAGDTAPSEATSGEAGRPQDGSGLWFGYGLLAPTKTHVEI
The experiment in a line: Intracellular calcium mobilization (Fluo-4 AM, FLIPR) in CHO cells expressing recombinant hNK2R. The class given is cell-based. The settings on record: for EC50: calcium mobilization, CHO-hNK2 cells, agonist potency, read-out: hNK2R pEC50 (converted); for selectivity for activation of hNK2Rs vs hNK1Rs: from ratios of EC50s. How it is done:
(§1) Intracellular Calcium Mobilization: The agonist efficacy of compounds A-J at recombinant hNK2R or hNK1Rs expressed in CHO cells was assessed by measuring intracellular calcium mobilization using the calcium-sensitive dye Fluo-4 AM (MOLECULAR PROBES, EUGENE, OR, USA) and a Fluorometric Imaging Plate Reader (FLIPR, MOLECULAR DEVICES, CA, USA). CHO-hNK1 and CHO-hNK2 cells were seeded into black walled clear-bottom 384-well plates) at a density of 10,000 and 15,000 cells per well in 50 μL culture media, respectively, and grown overnight at 37° C. in a humidified CO2-incubator. Cells were washed in washing buffer using a Microplate Washer BIOTEK 384 instrument, leaving 20 μL of buffer per well after the final aspiration. Cells were then incubated at 37° C. with the cytoplasmic Ca^2+ indicator Fluo-4 AM at 2 μM in assay buffer containing 2.5 mM probenecid and 0.02% Pluronic F-127 for 45-60 min (cell loading). Cells were then washed 3 times in washing buffer using a Microplate Washer BIOTEK 384 instrument, leaving 30 μL of buffer in each well after the last wash. Loaded cell plates were transferred to the FLIPR Tetra instrument and calcium responses monitored as described below. A dual read-out FLIPR protocol was used, allowing for characterization of both agonist and antagonist profiles. For quality control, in each compound plate the signal was monitored by evaluating the responses to the reference standards (NKA and Substance P).
(§2) Twelve concentrations of each of the compounds A-J were evaluated for their ability to increase intracellular calcium levels with respect to the agonist reference standard (NKA or Substance P), and the pEC50 value was calculated. […] Concentration response curves of compounds were run in duplicate on two different occasions from the same stock solutions. Test solutions were prepared from 10 mM stock solutions in DMSO and 1 μL of each solution was stamped into V-bottom assay plates containing 49 μL assay buffer. The final concentration of DMSO was 0.5% in each well.
(§3) The results of the intracellular calcium mobilization by in vitro activation of recombinant hNK2Rs or hNK1Rs expressed in CHO cells as described above for the 10 peptide analogs A-J, is shown in Table 3 below. In addition, FIGS. 3A-3C are exemplary graphs showing stimulation of [Ca^2+] response in CHO cells expressing human NK2 or NK1 receptors by Compound A, Compound B, and Compound G, respectively. In FIGS. 3A-3C, data are expressed as % of the maximal response to substance P for NK1 receptors, or NKA for NK2 receptors. Each data point is the mean±SD from duplicate determinations.
For orientation: A change in cytosolic calcium serves as a functional read-out for many receptors and channels.

Data set [3] deals with T2, human NK1 receptor (hNK1R) (Homo sapiens, UniProt P25103).
T2 construct: expressed in transfected cells; host or cells: CHO (CHO-hNK1)
The data set is described as follows: Intracellular calcium mobilization (Fluo-4 AM, FLIPR) in CHO cells expressing recombinant hNK1R. The class given is cell-based. The settings on record: for EC50: calcium mobilization, CHO-hNK1 cells, agonist potency, read-out: hNK1R pEC50 (converted); for Emax: CHO, calcium response, CHO cells, full or partial agonists, read-out: maximal response at hNK1R compared to Substance P. The protocol: as §1, §2, §3

Where [4] appears, read: tested at concentrations up to 10 μM.

T2 sequence (P25103 whole entry): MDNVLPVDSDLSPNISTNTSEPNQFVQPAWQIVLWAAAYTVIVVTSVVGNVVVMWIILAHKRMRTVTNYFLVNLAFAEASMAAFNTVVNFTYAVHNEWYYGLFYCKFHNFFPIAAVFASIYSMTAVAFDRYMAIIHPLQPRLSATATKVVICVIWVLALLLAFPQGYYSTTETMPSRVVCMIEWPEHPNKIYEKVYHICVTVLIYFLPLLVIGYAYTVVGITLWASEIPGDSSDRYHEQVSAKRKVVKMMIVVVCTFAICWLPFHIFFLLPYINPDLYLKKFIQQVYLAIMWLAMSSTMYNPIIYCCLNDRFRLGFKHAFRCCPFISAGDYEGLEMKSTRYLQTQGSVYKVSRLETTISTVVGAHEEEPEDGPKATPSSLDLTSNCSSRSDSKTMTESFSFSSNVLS

The solubility is how much of the substance goes into solution per volume. A high value points to much dissolved substance. Turning to `CSCC[C@H](NC(=O)[C@H](CC(C)C)N1CC[C@@H](NC(=O)[C@@H](NC(=O)[C@H](Cc2ccccc2)NC(=O)[C@H](CCCCN)NC(=O)[C@@H](N)CC(=O)O)C(C)C)C1=O)C(N)=O` [Compound C, Asp-Lys-Phe-Val-gc-Met-NH2], the solubility in data set [1] is 5000 µg/mL (≈ 5.99 mM). For the same compound, the EC50 was 0.427 nM in data set [2] and 53.7 nM in data set [3].
In data set [1], `CCCC[C@H](NC(=O)[C@H](CC(C)C)N1CC[C@@H](NC(=O)[C@@H](NC(=O)[C@H](Cc2ccccc2)NC(=O)[C@H](CO)NC(=O)[C@H](CC(=O)O)NC(=O)[C@@H](N)CCCCN)C(C)C)C1=O)C(N)=O` [Compound G, Lys-Asp-Ser-Phe-Val-gc-Nle-NH2] showed a solubility of 5000 µg/mL (≈ 5.54 mM). Also, the EC50 in data set [2] was 7.76 nM. For the same compound, in data set [3], the Emax is at least 73% and the EC50 was 1620 nM.
In general, Aqueous solubility refers to the dissolved amount per volume that the medium holds. Low readings indicate a poorly soluble substance, high ones a readily soluble substance. In data set [1], `CCCC[C@H](NC(=O)[C@H](CC(C)C)NC(=O)CCNC(=O)[C@@H](NC(=O)[C@H](Cc1ccccc1)NC(=O)[C@H](CO)NC(=O)[C@H](CC(=O)O)NC(=O)[C@@H](N)CCCCN)C(C)C)C(N)=O` [Compound J, Lys-Asp-Ser-Phe-Val-(β-Ala)-Leu-Nle-NH2] (H-KDSFV[βAla]L[Nle]-NH2; N-terminus assumed) yielded an Aqueous solubility of under 100 µg/mL and a solubility of under 100 µg/mL. In data set [2], the EC50 is 13.2 nM and the “selectivity for activation of hNK2Rs vs hNK1Rs” value (“selectivity for activation” for short) was over 20 fold. Moreover, the Emax in data set [2] (calcium response, CHO cells, full agonists, read-out: maximal response at hNK2R compared to Neurokinin A) is at least 85%. Moreover, in data set [3], the Emax was at least 85% and the EC50 is 302 nM.
In data set [1], `CSCC[C@H](NC(=O)[C@H](CC(C)C)N1CC[C@@H](NC(=O)[C@@H](NC(=O)[C@H](Cc2ccccc2)NC(=O)[C@H](CO)NC(=O)[C@@H](N)CC(=O)O)C(C)C)C1=O)C(N)=O` [Compound A, Asp-Ser-Phe-Val-gc-Met-NH2] returned an Aqueous solubility of under 100 µg/mL and a solubility of under 100 µg/mL. Besides, in data set [2], the EC50 was 0.676 nM and the “selectivity for activation” value is listed as over 700 fold. In data set [3], the Emax was at least 85% and the EC50 is 490 nM.
As to `CSCC[C@H](NC(=O)[C@H](CC(C)C)NC(=O)CCNC(=O)[C@@H](NC(=O)[C@H](Cc1ccccc1)NC(=O)[C@H](CO)NC(=O)[C@H](CC(=O)O)NC(=O)[C@@H](N)CCCCN)C(C)C)C(N)=O` [I, Lys-Asp-Ser-Phe-Val-(β-Ala)-Leu-Met-NH2] (H-KDSFV[βAla]LM-NH2; N-terminus assumed), in data set [1], the solubility is at least 5000 µg/mL. Moreover, the EC50 in data set [2] and in data set [3] was over 10000 nM throughout. Besides, in data set [2], the “selectivity for activation” value is listed as “did not exhibit selectivity for hNK2Rs; also recorded: do not exhibit selectivity for hNK2Rs”. In data set [2] (setting [4]), the “calcium response at hNK2R” value is given as “did not elicit a significant calcium response; also recorded: do not elicit a significant calcium response”. In data set [3] (setting [4]), the “calcium response at hNK1R” value is “did not elicit a significant calcium response; also recorded: do not elicit a significant calcium response”.
In the case of `CSCC[C@H](NC(=O)[C@H](CC(C)C)N1CC[C@@H](NC(=O)[C@@H](NC(=O)[C@H](Cc2ccccc2)NC(=O)[C@H](CCCNC(=N)N)NC(=O)[C@@H](N)CC(=O)O)C(C)C)C1=O)C(N)=O` [Compound E, Asp-Arg-Phe-Val-gc-Met-NH2], the solubility in data set [1] stood at 5000 µg/mL (≈ 5.8 mM). Moreover, the EC50 was 0.195 nM in data set [2] and 17.4 nM in data set [3].
Turning to `CCCC[C@H](NC(=O)[C@H](CC(C)C)N1CC[C@@H](NC(=O)[C@@H](NC(=O)[C@H](Cc2ccccc2)NC(=O)[C@H](CO)NC(=O)[C@@H](N)CC(=O)O)C(C)C)C1=O)C(N)=O` [Compound B, Asp-Ser-Phe-Val-gc-Nle-NH2], in data set [1], the Aqueous solubility was under 100 µg/mL and the solubility is under 100 µg/mL. Also, in data set [2], the EC50 is 8.51 nM. In addition, in data set [3], the Emax is at least 73% and the EC50 is 1780 nM.
In data set [1], `CCCC[C@H](NC(=O)[C@H](CC(C)C)N1CC[C@@H](NC(=O)[C@@H](NC(=O)[C@H](Cc2ccccc2)NC(=O)[C@H](CCCNC(=N)N)NC(=O)[C@@H](N)CC(=O)O)C(C)C)C1=O)C(N)=O` [Compound F, Asp-Arg-Phe-Val-gc-Nle-NH2] gave a solubility of 5000 µg/mL (≈ 5.92 mM). Besides, the EC50 in data set [2] was 2.51 nM; in data set [3], 234 nM.
